Experimental data as given in US20250009697A1, “COMPOSITION FOR INCREASING AMOUNT OF FOOD INGESTED AND/OR IMPROVING ANOREXIA, AND COMPOSITION FOR ACTIVATING TRANSIENT RECEPTOR POTENTIAL ANKYRIN 1” (HOUSE FOODS GROUP INC., priority 2021, published 2025).

Key:
Type in all cases: cell-based
Human TRPA1 (hTRPA1) = target: T1, Human TRPA1 (hTRPA1) (Homo sapiens, UniProt O75762); test: TRPA1 Activation Test 2: intracellular Ca2+ imaging assay 2-1 to 2-3, hTRPA1 stably expressing cell line; conditions: for TRPA1 activation rate: Table 7; for TRPA1 activation rate, With antagonist: A-967079 1 μM; for TRPA1 activation rate, With antagonist / TRPA1 activation rate, Without antagonist: Table 8
T1 construct: expressed in transfected cells
T1 sequence (O75762 whole entry): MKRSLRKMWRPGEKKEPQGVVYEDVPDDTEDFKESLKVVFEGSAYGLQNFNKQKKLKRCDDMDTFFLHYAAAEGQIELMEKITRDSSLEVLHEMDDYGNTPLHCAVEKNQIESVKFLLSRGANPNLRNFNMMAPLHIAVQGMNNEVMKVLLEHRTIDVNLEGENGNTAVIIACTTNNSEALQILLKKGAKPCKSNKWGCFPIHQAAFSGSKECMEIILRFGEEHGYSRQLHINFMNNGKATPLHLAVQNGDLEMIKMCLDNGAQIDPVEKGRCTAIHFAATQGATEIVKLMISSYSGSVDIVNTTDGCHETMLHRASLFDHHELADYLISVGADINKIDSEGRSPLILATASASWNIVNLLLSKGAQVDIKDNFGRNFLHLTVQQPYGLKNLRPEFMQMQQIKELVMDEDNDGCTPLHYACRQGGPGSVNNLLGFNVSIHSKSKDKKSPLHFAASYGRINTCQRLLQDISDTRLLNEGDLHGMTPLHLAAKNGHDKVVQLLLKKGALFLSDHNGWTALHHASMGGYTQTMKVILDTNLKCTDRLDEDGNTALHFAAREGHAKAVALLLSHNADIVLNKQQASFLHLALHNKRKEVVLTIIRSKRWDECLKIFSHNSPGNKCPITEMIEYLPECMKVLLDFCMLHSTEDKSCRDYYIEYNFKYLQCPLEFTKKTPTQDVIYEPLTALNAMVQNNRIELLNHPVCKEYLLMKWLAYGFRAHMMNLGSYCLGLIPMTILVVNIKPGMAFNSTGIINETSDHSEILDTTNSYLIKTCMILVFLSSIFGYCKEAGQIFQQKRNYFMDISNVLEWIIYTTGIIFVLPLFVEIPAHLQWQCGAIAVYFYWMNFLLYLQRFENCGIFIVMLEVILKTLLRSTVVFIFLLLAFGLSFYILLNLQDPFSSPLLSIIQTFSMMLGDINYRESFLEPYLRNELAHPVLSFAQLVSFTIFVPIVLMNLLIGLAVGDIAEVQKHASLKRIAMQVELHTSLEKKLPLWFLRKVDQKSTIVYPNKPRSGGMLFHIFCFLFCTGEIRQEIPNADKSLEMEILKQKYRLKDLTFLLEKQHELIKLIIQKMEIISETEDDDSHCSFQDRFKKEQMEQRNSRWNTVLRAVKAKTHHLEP
Procedure: (§1) DNAs encoding genes described in the following Table 2 were inserted into pcDNA 5/TO vector (Invitrogen) to prepare various expression vectors.
(§2) These expression vectors were transfected into T-REx™_293 cells (Invitrogen) by a conventional method using Lipofectamine LTX (Invitrogen). Then, various transfectants were cultured and cloned by a conventional method using Dulbecco's Modified Eagle Medium (DMEM, Nacalai Tesque Inc.), containing 10% fetal bovine serum (FBS, Cytiva), […] of hygromycin B, and 5 μg/mL of blasticidin S, as a drug selection medium to obtain a hTRPA1 stably expressing cell line, a hTRPV1 stably expressing cell line, and a hTRPM8 stably expressing cell line.
(§3) A hTRPA1 stably expressing cell line in which expression of hTRPA1 had been induced in advance by a conventional method was prepared in a 96 well clear bottom plate, and the hTRPA1 activating action of rhein (produced by Tokyo Chemical Industry Co., Ltd.) was tested. Specifically, after each well was washed with PBS, 50 μL of an assay buffer (Hanks' balanced salt solution containing no calcium ion or magnesium ion that contained 1 mM of CaCl2 dihydrate, 20 mM of HEPES, and 0.1% BSA) containing calcium fluorescent indicator Calbryte™ 520 AM (produced by AAT Bioquest) in a final concentration of 4 μM was added, followed by incubating at 33° C. for 45 minutes. After washing with the assay buffer, 100 μL of the assay buffer was added to each well. This plate was set to FlexStation 3 (Molecular Devices, LLC), and a fluorescence intensity (excitation wavelength 490 nm, fluorescence wavelength 525 nm) at 31° C. was measured every two seconds, and 30 seconds after the start of the measurement, 100 μL of an assay buffer containing a test sample (allyl isothiocyanate (AITC) of positive control or rhein) which was prepared to have a certain final concentration or DMSO was added. Then, a well in which an assay buffer containing ionomycin (having a final concentration of 10 μM after the addition) instead of the test samples was added was also prepared as a reference for fluorescence intensity.
(§4) The measurement was continued from the start of the measurement up to 120 seconds, and the TRPA1 activation ability of the test samples was calculated in accordance with the following formula.
(§5) Activation rate (%)=(Fmax[s]−F0)/(Fmax[i]−F0)×100 • Fmax[s]: The maximum value of the fluorescence intensity when the test sample or positive control was added • F0: The average value of the fluorescence intensity for 20 seconds after the start of the measurement (base line) • Fmax[i]: The maximum value of the fluorescence intensity when ionomycin was added
(§6) The TRPA1 activation ability of each test sample was measured in the same manner as in the above (2) except the test was conducted with A-967079 (1 μM), which is a TRPA1-specific antagonist, or without A-967079. In addition, intracellular Ca^2+ imaging assay was conducted in the same manner as in the above (2) except that a hTRPV1 stably expressing cell line, a hTRPM8 stably expressing cell line, or a Mock cell was used instead of the hTRPA1 stably expressing cell line. Note that capsaicin was used as positive control for the hTRPV1 stably expressing cell line, and icilin was used as positive control for the hTRPM8 stably expressing cell line.
A TRPA1 activation ability was measured in the same manner as in the above (2) by using, as a test sample, rhein or compounds described in the following Table 10, which had anthraquinone structures similar to rhein, at a concentration of 200 μM of the test sample.

Human TRPM8 (hTRPM8) = target: T2, Human TRPM8 (hTRPM8) (Homo sapiens, UniProt Q7Z2W7); test: TRPA1 Activation Test 2: intracellular Ca2+ imaging assay 2-2, hTRPM8 stably expressing cell line; conditions: for TRPM8 activation rate: Table 9
T2 construct: expressed in transfected cells
T2 sequence (Q7Z2W7 whole entry): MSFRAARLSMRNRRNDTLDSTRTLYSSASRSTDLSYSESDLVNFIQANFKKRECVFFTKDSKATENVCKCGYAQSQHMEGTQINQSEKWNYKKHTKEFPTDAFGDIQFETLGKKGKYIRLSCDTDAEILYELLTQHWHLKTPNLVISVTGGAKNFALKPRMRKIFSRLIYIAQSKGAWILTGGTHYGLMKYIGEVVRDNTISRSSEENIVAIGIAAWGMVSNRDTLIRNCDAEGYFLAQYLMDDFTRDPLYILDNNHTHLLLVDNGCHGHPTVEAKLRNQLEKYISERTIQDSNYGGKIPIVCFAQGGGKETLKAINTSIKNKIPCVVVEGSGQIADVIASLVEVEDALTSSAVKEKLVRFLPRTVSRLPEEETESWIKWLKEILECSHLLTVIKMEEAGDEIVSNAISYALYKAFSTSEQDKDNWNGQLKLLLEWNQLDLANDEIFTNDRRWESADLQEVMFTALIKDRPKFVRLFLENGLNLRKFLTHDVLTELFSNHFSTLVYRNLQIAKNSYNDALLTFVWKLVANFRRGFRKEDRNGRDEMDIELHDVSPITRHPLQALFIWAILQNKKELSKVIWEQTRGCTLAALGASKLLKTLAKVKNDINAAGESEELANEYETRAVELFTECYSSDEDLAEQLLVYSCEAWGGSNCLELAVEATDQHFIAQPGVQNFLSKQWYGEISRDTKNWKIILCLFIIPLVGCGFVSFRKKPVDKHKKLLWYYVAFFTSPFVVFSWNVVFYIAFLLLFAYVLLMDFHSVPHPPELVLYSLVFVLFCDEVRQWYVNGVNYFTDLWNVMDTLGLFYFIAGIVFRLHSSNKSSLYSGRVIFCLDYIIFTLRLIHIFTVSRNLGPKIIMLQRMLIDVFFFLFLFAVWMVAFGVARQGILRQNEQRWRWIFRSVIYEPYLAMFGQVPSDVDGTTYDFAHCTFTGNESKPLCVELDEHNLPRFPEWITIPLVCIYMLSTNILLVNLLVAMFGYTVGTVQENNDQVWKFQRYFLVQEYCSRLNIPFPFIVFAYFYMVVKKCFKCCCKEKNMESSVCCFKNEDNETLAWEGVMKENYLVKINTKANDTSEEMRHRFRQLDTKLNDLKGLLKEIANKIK
Procedure: as §1, §2
as §3, with “This plate was set to FlexStation 3 (Molecular Devices, LLC), and a fluorescence intensity (excitation wavelength 490 nm, fluorescence wavelength 525 nm) at 31° C. was measured every two seconds, and 30 seconds after the start of the measurement, 100 μL of an assay buffer containing a test sample (allyl isothiocyanate (AITC) of positive control or rhein) which was prepared to have a certain final concentration or DMSO was added.” left out
as §4, §5
as §6, with “Note that capsaicin was used as positive control for the hTRPV1 stably expressing cell line, and icilin was used as positive control for the hTRPM8 stably expressing cell line.” left out

Mock cell = test: TRPA1 Activation Test 2: intracellular Ca2+ imaging assay 2-2, Mock cell; conditions: Table 9
Procedure: as §3, §4
Activation rate (%)=(Fmax[s]−F0)/(Fmax[i]−F0)×100 • Fmax[s]: The maximum value of the fluorescence intensity when the test sample or positive control was added • F0: The average value of the fluorescence intensity for 20 seconds after the start of the measurement (base line) • Fmax[i]: The maximum value of the fluorescence intensity when ionomycin was added […]

Human TRPV1 (hTRPV1) = target: T3, Human TRPV1 (hTRPV1) (Homo sapiens, UniProt Q8NER1); test: TRPA1 Activation Test 2: intracellular Ca2+ imaging assay 2-2, hTRPV1 stably expressing cell line; conditions: for TRPV1 activation rate: Table 9
T3 construct: expressed in transfected cells
T3 sequence (Q8NER1 whole entry): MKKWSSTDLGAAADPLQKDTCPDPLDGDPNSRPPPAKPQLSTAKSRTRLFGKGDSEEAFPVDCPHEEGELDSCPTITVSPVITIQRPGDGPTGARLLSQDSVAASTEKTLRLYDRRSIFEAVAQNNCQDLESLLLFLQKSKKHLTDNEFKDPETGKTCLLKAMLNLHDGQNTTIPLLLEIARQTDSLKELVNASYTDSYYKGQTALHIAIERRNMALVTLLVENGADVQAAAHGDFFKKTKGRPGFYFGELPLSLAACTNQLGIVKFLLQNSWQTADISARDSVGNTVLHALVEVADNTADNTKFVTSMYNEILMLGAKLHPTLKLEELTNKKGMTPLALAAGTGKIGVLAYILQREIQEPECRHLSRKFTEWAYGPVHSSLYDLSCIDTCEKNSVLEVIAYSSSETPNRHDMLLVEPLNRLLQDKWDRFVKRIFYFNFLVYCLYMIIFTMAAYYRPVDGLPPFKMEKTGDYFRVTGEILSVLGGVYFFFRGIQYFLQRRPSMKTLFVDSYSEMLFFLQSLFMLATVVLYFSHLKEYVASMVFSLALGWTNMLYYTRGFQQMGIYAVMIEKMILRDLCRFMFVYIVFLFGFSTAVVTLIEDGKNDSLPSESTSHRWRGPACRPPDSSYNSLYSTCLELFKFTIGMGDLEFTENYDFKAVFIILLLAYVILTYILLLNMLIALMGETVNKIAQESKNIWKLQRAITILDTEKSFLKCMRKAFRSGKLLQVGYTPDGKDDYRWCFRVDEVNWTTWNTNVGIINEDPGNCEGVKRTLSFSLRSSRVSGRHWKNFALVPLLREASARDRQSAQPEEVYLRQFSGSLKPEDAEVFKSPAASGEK
Procedure: as §1, §2
as §3, with “This plate was set to FlexStation 3 (Molecular Devices, LLC), and a fluorescence intensity (excitation wavelength 490 nm, fluorescence wavelength 525 nm) at 31° C. was measured every two seconds, and 30 seconds after the start of the measurement, 100 μL of an assay buffer containing a test sample (allyl isothiocyanate (AITC) of positive control or rhein) which was prepared to have a certain final concentration or DMSO was added.” left out
as §4, §5
as §6, with “Note that capsaicin was used as positive control for the hTRPV1 stably expressing cell line, and icilin was used as positive control for the hTRPM8 stably expressing cell line.” left out

- TRPA1 activation rate (Human TRPA1 (hTRPA1); test sample 1 μM): 0.57 ± 0.0414%
- TRPA1 activation rate (Human TRPA1 (hTRPA1); test sample 10 μM): 19.1 ± 1.00%
- TRPA1 activation rate (Human TRPA1 (hTRPA1); test sample 25 μM): 41.1 ± 1.51%
- TRPA1 activation rate (Human TRPA1 (hTRPA1); test sample 50 μM): 66.4 ± 1.45%
- TRPA1 activation rate (Human TRPA1 (hTRPA1); test sample 75 μM): 69.7 ± 1.25%
- TRPA1 activation rate, With antagonist (Human TRPA1 (hTRPA1); test sample 100 μM): 3.26 ± 0.102 %
- TRPA1 activation rate (Human TRPA1 (hTRPA1); test sample 100 μM): 75.5 ± 1.19%
- TRPA1 activation rate, Without antagonist (Human TRPA1 (hTRPA1); test sample 100 μM): 79.4 ± 4.08%
- TRPA1 activation rate, With antagonist (Human TRPA1 (hTRPA1); test sample 200 μM): 8.40 ± 0.238 %
- TRPA1 activation rate (Human TRPA1 (hTRPA1); test sample 200 μM): 85.7 ± 1.62%
- TRPA1 activation rate, Without antagonist (Human TRPA1 (hTRPA1); test sample 200 μM): 82.1 ± 0.918%
- TRPA1 activation rates (Human TRPA1 (hTRPA1); test sample 200 μM, Table 10): 85.7 ± 1.62%
- TRPM8 activation (in words) (Human TRPM8 (hTRPM8); hTRPM8 stably expressing cell line): not activated
- TRPM8 activation rate (Human TRPM8 (hTRPM8); test sample 100 μM): 2.52 ± 0.0847%
- TRPM8 activation rate (Human TRPM8 (hTRPM8); test sample 200 μM): 5.71 ± 0.118%
- TRPV1 activation (in words) (Human TRPV1 (hTRPV1); hTRPV1 stably expressing cell line): not activated
- TRPV1 activation rate (Human TRPV1 (hTRPV1); test sample 100 μM): 2.40 ± 0.0395%
- TRPV1 activation rate (Human TRPV1 (hTRPV1); test sample 200 μM): 5.49 ± 0.0830%
SMILES: O=C(O)c1cc(O)c2c(c1)C(=O)c1cccc(O)c1C2=O [Rhein, rhein]
- TRPA1 activating action with TRPA1-specific antagonist (in words) (Human TRPA1 (hTRPA1); A-967079): inhibited by the TRPA1-specific antagonist
- TRPA1 activating action (in words) (Human TRPA1 (hTRPA1); hTRPA1 stably expressing cell line): activated TRPA1 in concentration dependent manner
- Activation rate, Mock (Mock cell; test sample 100 μM): 3.49 ± 0.0595%
- Activation rate, Mock (Mock cell; test sample 200 μM): 9.65 ± 0.143%
